Reference: ChEMBL document CHEMBL4842364 (J Med Chem, 2021)
pIC50: −log10 of the molar value. Activity calls are given as the source filed them. No cut-off for these calls is given here.

Tests used:
NCI-H23 = test: Antiproliferative activity against human NCI-H23 cells assessed as reduction in cell viability after 4 days by CellTiter-Glo assay
Wee1-like protein kinase = Wee1-like protein kinase (Homo sapiens, UniProt P30291)
Description: Displacement of Alexa Fluor labelled kinase tracer178 from WEE1 (unknown origin) incubated for 60 mins by FRET assay

[1] = Octanol/buffer distribution coefficient, logD of the compound at pH 7.4; type: physicochemical
[2] = Intrinsic clearance in human microsomes; type: ADME, Microsome
[3] = Intrinsic clearance in mouse microsomes; type: ADME, Microsome
[4] = AUC(0 to 24 hrs) in mouse at 60 mg/kg, po; type: ADME, organism-based; parameters: time < 24 hr, route oral, dose 60 mg/kg; conditions: in vivo
[5] = AUC(0 to 24 hrs) in rat at 60 mg/kg, po; type: ADME, organism-based; parameters: time < 24 hr, route oral, dose 60 mg/kg; conditions: in vivo
[6] = Plasma protein binding in human; type: ADME, cell-free; conditions: read-out: PPB (converted)
Cytochrome P450 3A4 = Cytochrome P450 3A4 (Homo sapiens, UniProt P08684); test: Inhibition of CYP3A4 (unknown origin); type: ADME
Sequence of Cytochrome P450 3A4 (P08684 whole entry): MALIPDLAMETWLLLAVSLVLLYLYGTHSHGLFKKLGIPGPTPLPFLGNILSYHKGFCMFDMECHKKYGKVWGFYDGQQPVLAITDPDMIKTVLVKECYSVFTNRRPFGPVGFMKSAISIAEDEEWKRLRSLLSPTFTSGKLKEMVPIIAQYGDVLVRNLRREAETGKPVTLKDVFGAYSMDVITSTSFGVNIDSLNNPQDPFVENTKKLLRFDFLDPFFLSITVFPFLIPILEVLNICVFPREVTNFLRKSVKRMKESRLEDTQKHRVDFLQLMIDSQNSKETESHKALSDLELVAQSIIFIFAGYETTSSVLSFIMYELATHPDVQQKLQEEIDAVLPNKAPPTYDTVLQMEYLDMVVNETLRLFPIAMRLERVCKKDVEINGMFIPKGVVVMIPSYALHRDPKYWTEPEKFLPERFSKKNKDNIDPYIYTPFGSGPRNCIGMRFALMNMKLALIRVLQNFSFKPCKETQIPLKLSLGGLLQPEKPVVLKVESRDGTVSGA

[7] = Permeability of the compound across apical to basolateral side in human Caco-2 cells; type: ADME, cell-based; conditions: read-out: permeability
[8] = Permeability of the compound across basolateral to apical side in human Caco-2 cells; type: ADME, cell-based; conditions: read-out: permeability
[9] = Efflux ratio of permeability from basolateral to apical side over apical to basolateral side in human Caco-2 cells; type: ADME, cell-based
[10] = AUC(0 to 24 hrs) in mouse at 10 mg/kg, po; type: ADME, organism-based; parameters: time < 24 hr, route oral, dose 10 mg/kg; conditions: in vivo
A-427 [11] = test: Antitumor activity against human A-427 cells xenografted in SCID mouse assessed as reduction in tumor growth at 80 mg/kg, po administered once daily for 28 days and measured twice per weeks; type: functional, organism-based; conditions: time 28.0 day
[12] = AUC in mouse plasma at 80 mg/kg, po administered once daily for 28 days; type: ADME, organism-based; parameters: time 28 day, dose 80 mg/kg
A-427 [13] = test: Antiproliferative activity against human A-427 cells assessed as reduction in cell viability after 3 days by CellTiter-Glo assay; type: functional, cell-based; conditions: A-427, 72 h

Sequence of Wee1-like protein kinase (P30291 whole entry): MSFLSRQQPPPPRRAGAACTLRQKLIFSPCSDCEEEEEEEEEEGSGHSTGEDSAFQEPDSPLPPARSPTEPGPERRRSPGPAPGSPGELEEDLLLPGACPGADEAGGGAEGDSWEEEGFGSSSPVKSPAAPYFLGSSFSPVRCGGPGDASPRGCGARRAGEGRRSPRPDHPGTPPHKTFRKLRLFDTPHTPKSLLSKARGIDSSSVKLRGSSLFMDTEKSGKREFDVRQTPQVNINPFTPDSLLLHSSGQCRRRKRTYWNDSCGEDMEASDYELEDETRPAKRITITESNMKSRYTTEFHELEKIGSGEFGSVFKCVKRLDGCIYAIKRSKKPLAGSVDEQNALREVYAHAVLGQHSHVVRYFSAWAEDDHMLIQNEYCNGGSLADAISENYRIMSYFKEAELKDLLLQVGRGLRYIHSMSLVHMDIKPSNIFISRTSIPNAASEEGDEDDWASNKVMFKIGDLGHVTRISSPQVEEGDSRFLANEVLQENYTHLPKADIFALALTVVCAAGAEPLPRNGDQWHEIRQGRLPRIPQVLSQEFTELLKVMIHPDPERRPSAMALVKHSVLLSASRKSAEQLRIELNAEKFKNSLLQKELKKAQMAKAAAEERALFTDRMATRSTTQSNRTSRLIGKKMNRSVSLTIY

Structure (SMILES) | pIC50 (NCI-H23; Homo sapiens, NCI-H23, 96 h) | pIC50 (Wee1-like protein kinase) | logD [1] | CLint scaled [2] | CLint scaled [3] | AUC(0-t) at 24 h [4] | other results
CC[C@@]1(O)CCc2ccc(-n3c4nc(Nc5ccc(N6CCN(C)CC6)cc5)ncc4c(=O)n3CC=C(F)F)nc21 | 5.24 | 7.66 |  |  |  |  | 
C=CCn1c(=O)c2cnc(Nc3ccc(N4CCN(C)CC4)cc3)nc2n1-c1ccc2c(c1)C(C)(O)CC2 (single isomer, unassigned) | 6.73 | 8.48 | 2.5 | 26 mL/min/kg | 206 mL/min/kg | 19 µM·h | AUC(0-t) at 24 h [5]: 17 µM·h
C=CCn1c(=O)c2cnc(Nc3ccc(N4CCN(C)CC4)cc3)nc2n1-c1ccc2c(n1)C(O)CC2 (stereo in doubt; 8) | 5.64 | 8.24 | 1.7 | 12 mL/min/kg | < 38 mL/min/kg |  | AUC(0-t) at 24 h [5]: 0.3 µM·h
C=CCn1c(=O)c2cnc(Nc3ccc4c(c3)CNCC43CC3)nc2n1-c1ccc2c(n1)[C@@](O)(C(F)(F)F)CC2 | 6.82 | 8.60 | 2.1 | 97 mL/min/kg | 555 mL/min/kg |  | 
C=CCn1c(=O)c2cnc(Nc3ccc(N4CCN(C)CC4)cc3)nc2n1-c1ccc2c(n1)C(C)(O)CO2 (single isomer, unassigned) | 5.85 | 8.34 | 1.4 | 17 mL/min/kg | < 38 mL/min/kg |  | 
C=CCn1c(=O)c2cnc(Nc3ccc(N4CCN(C)CC4)c(C)c3)nc2n1-c1ccc2c(n1)[C@](C)(O)CC2 | 6.89 | 8.64 | 2.6 | 80 mL/min/kg | 121 mL/min/kg | 52 µM·h | AUC(0-t) at 24 h [5]: 40 µM·h
C=CCn1c(=O)c2cnc(Nc3ccc(N4CCN(C)CC4)cc3)nc2n1-c1ccc2c(n1)[C@@](C)(O)CC2 | 5.94 | 8.28 | 2 | 18 mL/min/kg | < 8.6 mL/min/kg | 21 µM·h | AUC(0-t) at 24 h [5]: 14 µM·h
Cc1cn(-c2c(Cl)cccc2Cl)c(=O)c2cnc(Nc3ccc(N4CCN(C)CC4)cc3)nc12 | 6.65 | 8.70 | 3.4 | 39 mL/min/kg |  |  | fraction unbound [6]: 0.027; pIC50 (Cytochrome P450 3A4): 5.35; Papp A→B [7]: 1.5 ×10⁻⁶ cm/s; Papp B→A [8]: 1.8 ×10⁻⁶ cm/s; efflux ratio [9]: 1.1
C=CCn1c(=O)c2cnc(Nc3ccc(N4CCN(C)CC4)cc3)nc2n1-c1ccc2c(n1)C(O)CC2 (stereo in doubt; 9) |  | 8.37 |  |  |  |  | pIC50 (NCI-H23; nci-h23): 5.60
C=CC(F)(F)n1c(=O)c2cnc(Nc3ccc(N4CCN(C)CC4)cc3)nc2n1-c1ccc2c(n1)[C@@](O)(CC)CC2 | 5.33 | < 7.00 |  |  |  |  | 
C=CCn1c(=O)c2cnc(Nc3cc(N4CCN(C)CC4)c4ccn(C)c4c3)nc2n1-c1ccc2c(n1)[C@@](O)(CC)CC2 | 6.96 | 7.92 | 2.7 | 41 mL/min/kg | 395 mL/min/kg | 14 µM·h | 
C=CCn1c(=O)c2cnc(Nc3ccc4c(ccn4C4CCN(C)CC4)c3)nc2n1-c1ccc2c(n1)[C@@](O)(CC)CC2 | 6.94 | 8.59 | 2.7 | 267 mL/min/kg | 124 mL/min/kg |  | 
C=CCn1c(=O)c2cnc(Nc3ccc4c(c3)CN(CCO)CC4)nc2n1-c1cccc(C(C)(C)O)n1 | 6.56 | 8.60 | 2.2 |  | 307 mL/min/kg | 1.8 µM·h | 
C=CCn1c(=O)c2cnc(Nc3ccc(N4CCN(C)CC4)cc3)nc2n1-c1ccc2c(n1)[C@@](N)(CC)CC2 | 7.59 | 8.49 | 1.4 | 26 mL/min/kg | 152 mL/min/kg | 3.9 µM·h | 
C=CCn1c(=O)c2cnc(Nc3ccc4c(c3)CNCC43CC3)nc2n1-c1cccc(C(C)(C)O)n1 | 7.27 | 8.62 | 1.9 |  | 1400 mL/min/kg | 6.4 µM·h | 
C=CCn1c(=O)c2cnc(Nc3ccc4c(c3)CN(C)CC43CC3)nc2n1-c1cccc(C(C)(C)O)n1 |  |  | 3.1 |  | 1060 mL/min/kg |  | AUC(0-t) at 24 h [10]: 0.7 µM·h
C=CCn1c(=O)c2cnc(Nc3ccc4c(c3)CCN(C)C4)nc2n1-c1cccc(C(C)(C)O)n1 | 7.09 | 8.59 | 2.5 |  | 186 mL/min/kg | 9.6 µM·h | 
C=CCn1c(=O)c2cnc(Nc3ccc(N4CCN(C)CC4)c(C)c3)nc2n1-c1ccc2c(n1)[C@@](O)(CC)CC2 | 7.24 | 8.51 | 3 | 102 mL/min/kg | 191 mL/min/kg | 59 µM·h | AUC(0-t) at 24 h [5]: 43 µM·h
C=CCn1c(=O)c2cnc(Nc3ccc(N4CCN(C)CC4)cc3)nc2n1-c1cccc(C(C)(C)O)n1 [ADAVOSERTIB] | 6.91 |  | 2.2 | 34 mL/min/kg |  | 22 µM·h | fraction unbound [6]: 0.361; Papp A→B [7]: 3.4 ×10⁻⁶ cm/s; Papp B→A [8]: 42 ×10⁻⁶ cm/s; AUC ([10]; 24 h): 0.8 µM·h; Activity (A-427 [11]): Active; AUC at 672 h [12]: 44 µM·h; pIC50 (A-427 [13]): 7.11
C=CCn1c(=O)c2cnc(Nc3ccc(N4CCN(C)CC4)cc3)nc2n1-c1ccc2c(n1)[C@@](O)(CC)CCC2 | 7.25 | 8.43 | 2.9 | 71 mL/min/kg | 126 mL/min/kg | 35 µM·h | AUC(0-t) at 24 h [5]: 24 µM·h
C=CCn1c(=O)c2cnc(Nc3ccc4c(c3)CN(C)CC4)nc2n1-c1cccc(C(C)(C)O)n1 | 7.19 | 8.59 | 2.4 |  | 603 mL/min/kg |  | AUC(0-t) at 24 h [10]: 1 µM·h
C=CCn1c(=O)c2cnc(Nc3ccc(N4CCN(C)CC4)cc3)nc2n1-c1ccc2c(n1)C(O)(C1CC1)CC2 (single isomer, unassigned) | 6.73 | 8.54 | 2.4 | 39 mL/min/kg | 78 mL/min/kg |  | 
C=CCn1c(=O)c2cnc(Nc3ccc(N4CCN(C)CC4)cc3)nc2n1-c1ccc2c(n1)[C@](C)(O)CCC2 | 6.75 | 8.43 | 2.6 | 18 mL/min/kg | 66 mL/min/kg | 54 µM·h | AUC(0-t) at 24 h [5]: 9.4 µM·h; Activity (A-427 [11]): Active; AUC at 672 h [12]: 83 µM·h; pIC50 (A-427 [13]): 6.81
C=CCn1c(=O)c2cnc(Nc3ccc(N4CCNCC4)cc3)nc2n1-c1ccc2c(n1)[C@@](O)(CC)CC2 | 6.67 | 8.49 | 1 | 26 mL/min/kg | 52 mL/min/kg | 1 µM·h | 
CC[C@@]1(O)CCc2ccc(-n3c4nc(Nc5ccc(N6CCN(C)CC6)cc5)ncc4c(=O)n3CC3CC3)nc21 | 5.47 | 7.19 |  |  |  |  | 
C=CCn1c(=O)c2cnc(Nc3ccc(N4CCN(C)CC4)cc3)nc2n1-c1ccc2c(n1)C(O)(C(F)(F)F)CC2 (single isomer, unassigned) | 6.73 | 8.44 | 2.8 | 71 mL/min/kg | 126 mL/min/kg | 33 µM·h | AUC(0-t) at 24 h [5]: 37 µM·h
C=CCn1c(=O)c2cnc(Nc3cccc(N4CCN(C)CC4)c3)nc2n1-c1ccc2c(n1)[C@@](O)(CC)CC2 | 6.56 | 8.49 | 2.6 | 135 mL/min/kg | 1110 mL/min/kg |  | 
C=CCn1c(=O)c2cnc(Nc3ccc4c(c3)CNCC4)nc2n1-c1cccc(C(C)(C)O)n1 | 6.98 |  | 1.3 |  | 170 mL/min/kg | 2.9 µM·h | AUC(0-t) at 24 h [10]: 0.2 µM·h
C=CCn1c(=O)c2cnc(Nc3ccc(N4CCN(C)CC4)cc3)nc2n1-c1ccc2c(n1)C(F)(F)CC2 | 5.81 | 8.19 | 2.8 | 48 mL/min/kg | 293 mL/min/kg |  | 
C=CCn1c(=O)c2cnc(Nc3ccc(N4CCN(C)CC4)cc3)nc2n1-c1ccc2c(n1)[C@@](O)(C(F)F)CC2 | 6.57 | 8.59 | 2.3 | 47 mL/min/kg | 108 mL/min/kg |  | 
